Data from US11672775B2, “Treprostinil prodrugs” (United Therapeutics Corporation, priority 2016, dated 2023).

Key:
[1] = tested on: Sprague Dawley rats; test: Rat intraplantar injection model, clinical observation score (Example 10); type: in vivo, Sprague Dawley rat
Procedure: Male Sprague Dawley rats (n=56) were allocated into 7 groups of 8 animals per group. […] Each group was compared to the phosphate buffer (50-mM phosphate buffer with 50-mM sodium chloride at pH=7.4) treated group, which served as the control (Group 1).
Animals were administered 0.1 mL of test material by subcutaneous injection into the paw pad (Intraplantar injection) at time zero. Then, the animals were subsequently evaluated for their response to mechanical (von Frey filaments) and thermal stimuli, 15 and 90 minutes post-injection. The von Frey test was conducted prior to the thermal test, which followed immediately within minutes for each animal. In addition, clinical observation scoring of the animal's reaction to injection was conducted.
A clinical observation score was assigned by assessing for redness, swelling and paw placement.

[2] = molecular target: T1, DP1 receptor (Homo sapiens, UniProt Q13258); test: cAMP assay (TR-FRET or HTRF kit, forskolin), Examples 5 and 6; type: cell-based; conditions: Table 3 (Example 5); read-out: EC50, DP receptor
T1 construct: expressed in transfected cells
T1 sequence (Q13258 1-359): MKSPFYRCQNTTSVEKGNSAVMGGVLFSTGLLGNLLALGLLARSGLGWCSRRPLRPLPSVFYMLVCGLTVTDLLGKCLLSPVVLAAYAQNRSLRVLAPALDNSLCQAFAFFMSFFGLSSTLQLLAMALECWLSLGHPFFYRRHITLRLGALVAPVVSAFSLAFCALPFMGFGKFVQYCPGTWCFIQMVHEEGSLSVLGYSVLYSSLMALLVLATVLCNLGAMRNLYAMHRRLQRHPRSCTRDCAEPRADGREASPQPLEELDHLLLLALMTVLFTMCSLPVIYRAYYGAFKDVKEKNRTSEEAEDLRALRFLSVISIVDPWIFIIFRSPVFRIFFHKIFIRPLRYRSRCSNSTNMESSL
Procedure: (§1) [table] Prodrug XV (for structure see FIG. 10) as well as treprostinil were tested for 3 G-protein-coupled receptors (GPCRs), namely DP1, EP2, and IP, using cyclic adenosine monophosphate (cAMP) assay. Cyclic AMP assay kits: Multiscreen™ TR-FRET cAMP 1.0 No Wash Assay Kit (Multispan, Inc., Cat #MSCM01-25) and HTRF cAMP HiRange Kit (CisBio, Cat #62AM6PEC). Instruments: FlexStation III (Molecular Devices). Cyclic AMP (cAMP) Assay: cAMP assays were performed according to the manufacturer's protocol using Multiscreen™ TR-FRET cAMP 1.0 No Wash Assay Kit or HTRF cAMP HiRange Kit. […] The reaction was terminated by sequentially adding sequentially adding trFluor™ Eu-labeled cAMP and trFluor™ 650-labeled anti-cAMP antibody or D2-labeled cAMP and cryptate-labeled anti-cAMP antibody in lysis buffer. The plate was then incubated at room temperature for 60 minutes before reading fluorescent emissions at 620 nm and 665 or 668 nm with excitation at 314 nm on FlexStation III (Molecular Devices). Cyclic AMP (cAMP) assays: Cyclic AMP assay results are shown as “Ratio 665/620×10,000” (ratio of fluorescence at 665 nm and 620 nm×10,000) or “Ratio 668/620×10,000” (ratio of fluorescence at 668 nm and 620 nm×10,000). Data in graphs were represented in Mean±SD. Dose-dependent responses were fitted with sigmoidal dose-response curves allowing variable slopes using GraphPad Prism versions 4, 5 or 6 (Graphpad Prism). Treprostinil Prodrug XIV (for structure see FIG. 10) as well as treprostinil were tested for 3 G-protein-coupled receptors (GPCRs), namely DP1, EP2, and IP, using cyclin adenosine monophosphate (cAMP) assay. Cyclic AMP assay kits: Multiscreen™ TR-FRET cAMP 1.0 No Wash Assay Kit (Multispan, Inc., Cat #MSCM01-25) and HTRF cAMP HiRange Kit (CisBio, Cat #62AM6PEC). Cyclic AMP (cAMP) Assay: cAMP assays were performed according to the manufacturer's protocol using Multiscreen™ TR-FRET cAMP 1.0 No Wash Assay Kit or HTRF cAMP HiRange Kit. […] The reaction was terminated by sequentially adding sequentially adding trFluor™ Eu-labeled cAMP and trFluor™ 650-labeled anti-cAMP antibody or D2-labeled cAMP and cryptate-labeled anti-cAMP antibody in lysis buffer. The plate was then incubated at room temperature for 60 minutes before reading fluorescent emissions at 620 nm and 665 or 668 nm with excitation at 314 nm on FlexStation III (Molecular Devices). Cyclic AMP (cAMP) assays: Cyclic AMP assay results are shown as “Ratio 665/620×10,000” (ratio of fluorescence at 665 nm and 620 nm×10,000) or “Ratio 668/620×10,000” (ratio of fluorescence at 668 nm and 620 nm×10,000). Data in graphs were represented in Mean±SD. Dose-dependent responses were fitted with sigmoidal dose-response curves allowing variable slopes using GraphPad Prism versions 4, 5 or 6 (Graphpad Prism).

[3] = molecular target: T2, EP2 receptor (Homo sapiens, UniProt P43116); test: as above; type: cell-based; conditions: Table 3 (Example 5); read-out: EC50, EP receptor
T2 construct: expressed in transfected cells
Procedure: as §1

[4] = molecular target: T3, IP1 receptor (Homo sapiens, UniProt P43119); test: as above; type: cell-based; conditions: Table 3 (Example 5); read-out: EC50, IP receptor
T3 construct: expressed in transfected cells
Procedure: as §1

[5] = tested on: Sprague Dawley rats; test: Cardiovascular assessment by radiotelemetry following subcutaneous injection (Example 12); type: in vivo, Sprague Dawley rat
Procedure: Clinical observations were performed at approximately 6 hours prior to dosing, at the completion of dosing and at approximately 4 hours postdosing.

[6] = 0.1 mg/kg SC (first statement as printed)

T3 sequence (P43119 whole entry): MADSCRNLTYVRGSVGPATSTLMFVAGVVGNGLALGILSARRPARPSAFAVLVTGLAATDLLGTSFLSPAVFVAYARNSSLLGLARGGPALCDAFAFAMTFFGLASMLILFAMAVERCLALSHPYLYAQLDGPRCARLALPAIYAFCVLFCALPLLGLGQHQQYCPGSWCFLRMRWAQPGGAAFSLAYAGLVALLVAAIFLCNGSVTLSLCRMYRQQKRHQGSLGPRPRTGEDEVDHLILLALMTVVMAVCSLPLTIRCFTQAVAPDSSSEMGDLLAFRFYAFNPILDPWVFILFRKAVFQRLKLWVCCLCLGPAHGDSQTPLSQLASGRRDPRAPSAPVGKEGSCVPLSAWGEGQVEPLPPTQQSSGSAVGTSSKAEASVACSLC
T2 sequence (P43116 whole entry): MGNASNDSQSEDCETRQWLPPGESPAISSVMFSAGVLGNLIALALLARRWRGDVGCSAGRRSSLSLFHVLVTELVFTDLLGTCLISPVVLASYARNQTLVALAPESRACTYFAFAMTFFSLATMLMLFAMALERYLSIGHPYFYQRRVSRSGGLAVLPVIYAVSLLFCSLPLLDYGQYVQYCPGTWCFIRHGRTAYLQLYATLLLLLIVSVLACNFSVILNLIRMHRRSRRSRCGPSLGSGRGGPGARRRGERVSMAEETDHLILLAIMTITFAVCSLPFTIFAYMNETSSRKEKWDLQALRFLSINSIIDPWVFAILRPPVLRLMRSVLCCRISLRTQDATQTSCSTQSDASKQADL

`CCCCC[C@H](O)CC[C@@H]1[C@H]2Cc3cccc(OCC(=O)O)c3C[C@H]2C[C@H]1O` [Treprostinil] was tested, and the mean clinical score ([1]; 100 μg/mL, each of 15 min and 90 min) was “non-zero”, the “clinical score vs phosphate buffer treated group (statistically significant increase)” value ([1]; both doses, 90 minutes) was “same effect” and the EC50 [2] was 0.078 nM. For the same compound, the EC50 [3] was 0.537 nM, the EC50 [4] was 0.0779 nM and the body temperature change ([5]; 0.000125 mg/kg or 0.00125 mg/kg SC) was “No significant changes”. The “diastolic blood pressure change” value ([5]; 0.03 mg/kg SC) was “marginally lower”, the “mean blood pressure change” value ([5]; 0.03 mg/kg SC) was “marginally lower” and the “mean blood pressure, time of nadir” value ([5]; 0.03 mg/kg SC) was 30 min. The “systolic blood pressure change” value ([5]; 0.03 mg/kg SC) was “marginally lower”, the “body temperature changes resolved by” value ([5]; 0.1 mg/kg SC) was “approximately 3 hours” and the “diastolic blood pressure lowering persisted through” value ([5]; 0.1 mg/kg SC) was 90 min. For the same compound, the “diastolic blood pressure, time of nadir” value ([5]; 0.1 mg/kg SC) was 30 min, the “mean blood pressure lowering persisted through” value ([5]; 0.1 mg/kg SC) was 90 min and the “mean blood pressure, time of nadir” value ([5]; 0.1 mg/kg SC) was 30 min. The “systolic blood pressure lowering persisted through” value ([5]; 0.1 mg/kg SC) was 90 min, the “systolic blood pressure, time of nadir” value ([5]; 0.1 mg/kg SC) was 30 min and the body temperature change [5, 6] was “Marginally lower”. The “body temperature change persisted through” value [5, 6] was “approximately 3 hours”, the “body temperature changes resolved by” value ([5]; 0.3 mg/kg SC) was roughly 4 h and the “diastolic blood pressure lowering persisted through” value ([5]; 0.3 mg/kg SC) was 180 min. The “diastolic blood pressure, time of nadir” value ([5]; 0.3 mg/kg SC) was 20 min, the “mean blood pressure lowering persisted through” value ([5]; 0.3 mg/kg SC) was 180 min and the “mean blood pressure, time of nadir” value ([5]; 0.3 mg/kg SC) was 20 min. The “systolic blood pressure lowering persisted through” value ([5]; 0.3 mg/kg SC) was 120 min, the “systolic blood pressure, time of nadir” value ([5]; 0.3 mg/kg SC) was 20 min and the pulse pressure change ([5]; 0.3 mg/kg SC, from 20 to 40 minutes postdosing) was “Marginally lower”. For the same compound, the body temperature change ([5]; 0.1 and 0.3 mg/kg SC) was “Significantly lowered”, the “diastolic blood pressure change” value ([5]; 0.1 and 0.3 mg/kg SC) was “Significantly lower” and the “diastolic blood pressure, earliest time point of lowering” value ([5]; 0.1 and 0.3 mg/kg SC) was 10 min. For the same compound, the “mean blood pressure change” value ([5]; 0.1 and 0.3 mg/kg SC) was “Significantly lower”, the “mean blood pressure, earliest time point of lowering” value ([5]; 0.1 and 0.3 mg/kg SC) was 10 min and the “systolic blood pressure change” value ([5]; 0.1 and 0.3 mg/kg SC) was “Significantly lower”. For the same compound, the “systolic blood pressure, earliest time point of lowering” value ([5]; 0.1 and 0.3 mg/kg SC) was 10 min, the “dose resulting in significantly lower body temperature” value ([5]; single SC injection) was no less than 0.030 mg/kg and the “dose resulting in significantly lower systolic, diastolic, mean arterial blood pressure” value ([5]; single SC injection) was no less than 0.1 mg/kg. For the same compound, the heart rate change ([5]; single SC injection, all doses) was “Higher heart rates”, the “time by which heart rate changes resolved / recovered postdosing” value ([5]; single SC injection, all groups) was “approximately 5 hours” and the “diastolic blood pressure change” value ([5]; ≤0.030 mg/kg SC) was “No meaningful changes”. For the same compound, the “mean blood pressure change” value ([5]; ≤0.030 mg/kg SC) was “No meaningful changes” and the “systolic blood pressure change” value ([5]; ≤0.030 mg/kg SC) was “No meaningful changes”.
